Values after ≈ are worked out from the molar mass of the structure shown. Active and inactive are the calls of the source. No cut-off for these calls is given here.
How the values were obtained:
[1] = target: CDK9/cyclin T1 (Homo sapiens, UniProt P50750); experiment: Inhibition of CDK9/Cyclin T1 (unknown origin) preincubated for 10 mins followed by ATP and CTD3 addition and measured after 30 mins by mobility shift assay; type: protein-complex assay
[2] = tested on: MV4-11; experiment: Antiproliferative activity against human MV4-11 cells assessed as inhibition of cell growth incubated for 72 hrs by CTG- luminescence assay; type: functional, cell-based; settings: MV4-11, 72 h
[3] = tested on: MV4-11; experiment: Antiproliferative activity against human MV4-11 cells assessed as inhibition of cell growth at 0.37 uM incubated for 72 hrs by CTG- luminescence assay relative to control; type: functional
[4] = Kinetic solubility of the compound in pH 7.4 PBS buffer incubated for 24 hrs under shaking condition by HPLC analysis; type: physicochemical; settings: read-out: Kinetic_solubility
[5] = AUC(0 to infinity) in Sprague-Dawley rat at 1 mg/kg, iv bolus injection measured upto 24 hrs by LC-MS/MS analysis; type: ADME, organism-based; set-up: time < 24 hrs, dose 1 mg/kg, route iv; settings: in vivo
[6] = MRT(0 to t) in Sprague-Dawley rat at 1 mg/kg, iv bolus injection measured upto 24 hrs by LC-MS/MS analysis; type: ADME, organism-based; settings: in vivo
[7] = Elimination rate constant in Sprague-Dawley rat at 1 mg/kg, iv bolus injection measured upto 24 hrs by LC-MS/MS analysis; type: ADME, organism-based; settings: in vivo
[8] = AUC(0 to t) in Sprague-Dawley rat at 1 mg/kg, iv bolus injection measured upto 24 hrs by LC-MS/MS analysis; type: ADME, organism-based; set-up: dose 1 mg/kg, time < 24 hrs, route iv; settings: in vivo
[9] = Volume of distribution at steady state in Sprague-Dawley rat at 1 mg/kg, iv bolus injection measured upto 24 hrs by LC-MS/MS analysis; type: ADME, organism-based; settings: in vivo, read-out: Vdss
[10] = Half life in Sprague-Dawley rat at 1 mg/kg, iv bolus injection measured upto 24 hrs by LC-MS/MS analysis; type: ADME, organism-based; settings: in vivo
[11] = MRT(0 to infinity) in Sprague-Dawley rat at 1 mg/kg, iv bolus injection measured upto 24 hrs by LC-MS/MS analysis; type: ADME, organism-based; settings: in vivo
[12] = Initial plasma concentration in Sprague-Dawley rat at 1 mg/kg, iv bolus injection measured upto 24 hrs by LC-MS/MS analysis; type: ADME, organism-based
[13] = Clearance in Sprague-Dawley rat at 1 mg/kg, iv bolus injection measured upto 24 hrs by LC-MS/MS analysis; type: ADME, organism-based; settings: in vivo
[14] = tested on: MV4-11; experiment: Downregulation of Mcl-1 expression in human MV4-11 cells at 1 uM incubated for 24 hrs by Western blot analysis; type: functional, cell-based
[15] = tested on: MV4-11; experiment: Inhibition of RNA polymerase 2 phosphorylation at Ser2 residue in human MV4-11 cells at 1 uM incubated for 24 hrs by Western blot analysis; type: cell-based
[16] = tested on: MV4-11; experiment: Downregulation of c-Myc expression in human MV4-11 cells at 1 uM incubated for 24 hrs by Western blot analysis; type: functional, cell-based

Sequence of CDK9/cyclin T1 (O60563 whole entry): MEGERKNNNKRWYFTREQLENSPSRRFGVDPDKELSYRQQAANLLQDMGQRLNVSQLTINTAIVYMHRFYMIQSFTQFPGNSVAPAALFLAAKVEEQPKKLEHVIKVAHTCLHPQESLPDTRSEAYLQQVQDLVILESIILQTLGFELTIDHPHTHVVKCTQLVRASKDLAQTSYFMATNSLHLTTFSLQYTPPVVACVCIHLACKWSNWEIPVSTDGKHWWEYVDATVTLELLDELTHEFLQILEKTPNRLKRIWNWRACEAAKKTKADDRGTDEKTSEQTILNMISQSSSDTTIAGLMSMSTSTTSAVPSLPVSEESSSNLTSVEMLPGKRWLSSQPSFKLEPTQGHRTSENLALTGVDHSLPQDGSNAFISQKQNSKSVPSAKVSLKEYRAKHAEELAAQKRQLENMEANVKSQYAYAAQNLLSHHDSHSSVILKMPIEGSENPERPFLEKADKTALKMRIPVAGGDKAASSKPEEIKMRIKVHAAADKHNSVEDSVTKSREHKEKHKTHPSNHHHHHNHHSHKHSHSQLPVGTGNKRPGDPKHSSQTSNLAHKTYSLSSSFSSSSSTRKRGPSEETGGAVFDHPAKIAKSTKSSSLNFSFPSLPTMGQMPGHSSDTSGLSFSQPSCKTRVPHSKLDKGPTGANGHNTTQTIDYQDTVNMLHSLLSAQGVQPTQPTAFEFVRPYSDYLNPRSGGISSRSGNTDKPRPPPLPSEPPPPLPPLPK
Sequence of CDK9/cyclin T1 (P50750 whole entry): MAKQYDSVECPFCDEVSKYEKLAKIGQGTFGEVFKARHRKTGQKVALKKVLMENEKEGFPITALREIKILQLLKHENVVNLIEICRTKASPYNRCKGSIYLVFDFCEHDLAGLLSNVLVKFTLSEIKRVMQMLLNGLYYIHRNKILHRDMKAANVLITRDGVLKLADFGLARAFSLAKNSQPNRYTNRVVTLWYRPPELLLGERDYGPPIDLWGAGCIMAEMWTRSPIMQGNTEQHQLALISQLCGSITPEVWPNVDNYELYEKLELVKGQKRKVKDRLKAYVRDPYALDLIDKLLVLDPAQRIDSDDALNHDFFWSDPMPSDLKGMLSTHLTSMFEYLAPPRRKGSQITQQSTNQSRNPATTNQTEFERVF

| SMILES | IC50 [1] | IC50 [2] | other results |
| --- | --- | --- | --- |
| CCN1C(=O)COc2c(CN3CCOCC3)cc(Nc3cc(-c4ccc(F)cc4OC)c(Cl)cn3)cc21 | 0.08 µM |  |  |
| CCN1C(=O)COc2c(CN3CCOCC3)cc(Nc3nccc(-c4ccc5nnn(C(C)C)c5c4)n3)cc21 | 0.013 µM | 0.184 µM |  |
| CCN1C(=O)COc2c(CN3CCSCC3)cc(Nc3ncc(F)c(-c4ccc(F)cc4OC)n3)cc21 | 0.0036 µM | 0.13 µM |  |
| CCN1C(=O)COc2c(CN3CCC(N(C)C)C3)cc(Nc3ncc(F)c(-c4ccc(F)cc4OC)n3)cc21 (centres undefined) | 0.0037 µM | 0.124 µM |  |
| CCN1C(=O)COc2c(CN3CCNCC3)cc(Nc3ncc(F)c(-c4ccc(F)cc4OC)n3)cc21 | 0.0042 µM | 0.128 µM |  |
| CCN1C(=O)COc2c(CN3CCS(=O)(=O)CC3)cc(Nc3ncc(F)c(-c4ccc(F)cc4OC)n3)cc21 | 0.006 µM |  | inhibition at 0.37 µM [3]: 15% |
| CCN1C(=O)COc2c(CN3CCN(C)CC3)cc(Nc3ncc(F)c(-c4ccc(F)cc4OC)n3)cc21 | 0.0054 µM | 0.253 µM |  |
| CCN1CCN(Cc2cc(Nc3ncc(F)c(-c4ccc(F)cc4OC)n3)cc3c2OCC(=O)N3CC)CC1 | 0.0044 µM | 0.142 µM |  |
| CCN1C(=O)COc2c(CN3CCOCC3)cc(Nc3nccc(-c4ccc5nc(C)n(C(C)C)c5c4)n3)cc21 | 0.023 µM |  |  |
| CCN1C(=O)COc2c(CN3CCOCC3)cc(Nc3nccc(-c4cn(C)c5ccccc45)n3)cc21 | 0.039 µM |  |  |
| CN1CC[C@H](c2c(O)cc(O)c3c(=O)cc(-c4ccccc4Cl)oc23)[C@H](O)C1 |  |  | Activity [14]: Active; inhibition [15]: Active; Activity [16]: Active |
| CCN1C(=O)COc2c(CN3CCOCC3)cc(Nc3nccc(-c4ccc(F)cc4OCc4ccccc4)n3)cc21 | > 0.1 µM |  |  |
| CCN1C(=O)COc2c(CN3CCN(S(C)(=O)=O)CC3)cc(Nc3ncc(F)c(-c4ccc(F)cc4OC)n3)cc21 | 0.003 µM | 0.015 µM | solubility kinetic at 24 h [4]: 0.0305 mg/mL (≈ 51.8 µM); AUC(0-inf) [5]: 0.246 µg·h/mL; MRT last at 24 h [6]: 14.4 min; k el at 24 h [7]: 0.000728 s⁻¹; AUC(0-t) at 24 h [8]: 0.245 µg·h/mL; Vd [9]: 1.01 L/kg; half-life [10]: 15.9 min; MRT inf [11]: 14.8 min; C0 at 24 h [12]: 1.06 µg/mL; clearance [13]: 4.09 L/h/kg |
| CCN1C(=O)COc2c(CN3CCN(C(C)C)CC3)cc(Nc3ncc(F)c(-c4ccc(F)cc4OC)n3)cc21 | 0.0034 µM | 0.149 µM |  |
| CCN1C(=O)COc2c(CN3CCOCC3)cc(Nc3nccc(-c4cccnc4)n3)cc21 | 0.0067 µM | 0.306 µM |  |
| CCN1C(=O)COc2c(CN3CCCCC3)cc(Nc3ncc(F)c(-c4ccc(F)cc4OC)n3)cc21 | 0.0027 µM | 0.05 µM |  |
| CCN1C(=O)COc2c(CN3CCOCC3)cc(Nc3cc(-c4ccc(F)cc4OC)c(F)cn3)cc21 | 0.042 µM |  |  |
| CCN1C(=O)COc2c(CN3CCOCC3)cc(Nc3nccc(-c4ccc5nn(C)c(C(C)C)c5c4)n3)cc21 | 0.021 µM |  |  |

The next lines start with results.

| IC50 [1] | IC50 [2] | SMILES | other results |
| --- | --- | --- | --- |
| 0.0016 µM | 0.105 µM | CCN1C(=O)COc2c(CN3CCN(C4COC4)CC3)cc(Nc3ncc(F)c(-c4ccc(F)cc4OC)n3)cc21 |  |
| 0.0019 µM | 0.364 µM | CCN1C(=O)COc2c(CN3CCOC[C@H]3C)cc(Nc3ncc(F)c(-c4ccc(F)cc4OC)n3)cc21 |  |
| 0.0026 µM | 0.026 µM | CCN(CC)Cc1cc(Nc2ncc(F)c(-c3ccc(F)cc3OC)n2)cc2c1OCC(=O)N2CC | solubility kinetic at 24 h [4]: 0.0039 mg/mL (≈ 7.84 µM); AUC(0-inf) [5]: 0.111 µg·h/mL; MRT last at 24 h [6]: 36.7 min; k el at 24 h [7]: 0.0004 s⁻¹; AUC(0-t) at 24 h [8]: 0.107 µg·h/mL; Vd [9]: 6.45 L/kg; half-life [10]: 29.8 min; MRT inf [11]: 41.3 min; C0 at 24 h [12]: 0.155 µg/mL; clearance [13]: 10.1 L/h/kg |
| 0.0021 µM | 0.109 µM | CCN1C(=O)COc2c(CN3CCC(N4CCOCC4)CC3)cc(Nc3ncc(F)c(-c4ccc(F)cc4OC)n3)cc21 |  |
| 0.0026 µM | 0.228 µM | CCN1C(=O)COc2c(CN3CCOCC3)cc(Nc3nccc(-c4ccc(F)cc4OC)n3)cc21 |  |
| 0.0011 µM | 0.105 µM | CCN1C(=O)COc2c(CN3CCOCC3)cc(Nc3ncc(F)c(-c4ccc(F)cc4OC)n3)cc21 |  |
| 0.0023 µM | 0.065 µM | CCN1C(=O)COc2c(CN(C)CCOC)cc(Nc3ncc(F)c(-c4ccc(F)cc4OC)n3)cc21 |  |
| 0.0025 µM | 0.089 µM | CCN1C(=O)COc2c(CN(C)CCNC)cc(Nc3ncc(F)c(-c4ccc(F)cc4OC)n3)cc21 |  |
| 0.0022 µM | 0.143 µM | CCN1C(=O)COc2c(CN(C)CCN(C)C)cc(Nc3ncc(F)c(-c4ccc(F)cc4OC)n3)cc21 |  |
